According to ChEMBL document CHEMBL4325857, “Discovery and synthesis of tetrahydropyrimidinedione-4-carboxamides as endothelial lipase inhibitors” (Bioorg Med Chem Lett, 2018):

Tests used:
Endothelial lipase [1] = target: T1, Endothelial lipase (Homo sapiens, UniProt Q9Y5X9); experiment: Inhibition of recombinant human endothelial lipase expressed in African green monkey COS7 cells using HDL as substrate pretreated for 10 mins followed by substrate addition and measured after 30 mins by LC/MS/MS analysis
T1 sequence (Q9Y5X9 whole entry): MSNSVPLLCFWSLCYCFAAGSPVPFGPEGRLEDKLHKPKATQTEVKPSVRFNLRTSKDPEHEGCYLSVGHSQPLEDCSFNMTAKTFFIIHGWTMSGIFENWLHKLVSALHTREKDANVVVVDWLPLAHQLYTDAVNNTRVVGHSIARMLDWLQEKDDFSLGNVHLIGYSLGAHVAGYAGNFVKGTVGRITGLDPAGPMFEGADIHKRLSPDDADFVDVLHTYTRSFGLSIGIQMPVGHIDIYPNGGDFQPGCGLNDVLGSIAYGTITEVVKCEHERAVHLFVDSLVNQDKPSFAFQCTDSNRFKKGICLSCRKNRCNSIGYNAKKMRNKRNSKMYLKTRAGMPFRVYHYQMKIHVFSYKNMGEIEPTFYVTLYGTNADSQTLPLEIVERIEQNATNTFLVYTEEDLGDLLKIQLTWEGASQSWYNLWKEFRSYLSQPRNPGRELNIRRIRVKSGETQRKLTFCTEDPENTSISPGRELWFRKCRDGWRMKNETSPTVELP

Endothelial lipase [2] = target: T1, Endothelial lipase; experiment: Inhibition of endothelial lipase (unknown origin) using D31-POPC-HDL as substrate after 2 hrs in presence of human serum by LC/MS analysis
[3] = Permeability of compound at pH 7.4 by PAMPA; format: ADME; settings: read-out: permeability
[4] = Metabolic stability in mouse liver microsomes assessed as parent compound remaining after 10 mins; format: ADME, Microsome; settings: read-out: Stability
[5] = Half life in mouse at 1 mg/kg, iv; format: ADME, organism-based; settings: in vivo
[6] = Unbound plasma concentration in mouse at 1 mg/kg, iv; format: ADME, organism-based
[7] = Permeability of compound at pH 5.5 by PAMPA; format: ADME; settings: read-out: permeability
[8] = AUC in mouse at 1 mg/kg, po; format: ADME, organism-based; settings: in vivo
[9] = AUC in mouse at 1 mg/kg, iv; format: ADME, organism-based; settings: in vivo
[10] = Bioavailability in mouse at 1 mg/kg, […]; format: ADME, organism-based; settings: in vivo
[11] = Oral bioavailability in mouse at 1 mg/kg; format: ADME, organism-based; settings: in vivo

| IC50 (Endothelial lipase [1]) | IC50 (Endothelial lipase [2]) | Papp [3] | remaining at 10 min [4] | Papp [7] | SMILES | further results |
| --- | --- | --- | --- | --- | --- | --- |
| 218 nM | > 952000 nM |  |  |  | Nc1c(C(=O)N[C@H]2CC[C@@H](c3ccccc3)C2)[nH]c(=O)[nH]c1=O |  |
| 26 nM | 25000 nM | 1.2 ×10⁻⁶ cm/s | 100% | 42.7 ×10⁻⁶ cm/s | O=C(N[C@H]1CC[C@@H](c2ccccc2)CC1)c1[nH]c(=O)[nH]c(=O)c1O | half-life [5]: 1.1 h; fraction unbound [6]: 0.15; AUC [9]: 5.5 µM·h |
| 117 nM | 32000 nM | 15.8 ×10⁻⁶ cm/s |  | 27.7 ×10⁻⁶ cm/s | O=C(N[C@H]1CC[C@@H](c2ccccc2)CC1)c1[nH]c(=O)n(Cc2ccccc2)c(=O)c1O |  |
| 82 nM |  |  |  |  | CCN1CC(C(=O)N[C@H]2CC[C@@H](c3ccccc3)CC2)=C(O)C1=O |  |
| 1010 nM |  |  |  |  | CO[C@]1(c2ccc(F)cc2)CC[C@@H](NC(=O)c2[nH]c(=O)[nH]c(=O)c2N)CC1 |  |
| 80 nM | > 143000 nM |  |  |  | O=C(N[C@H]1CC[C@@H](c2ccccc2)CC1)c1[nH]c(=O)n(CCO)c(=O)c1O |  |
| 156 nM | 436000 nM |  |  |  | O=C(N[C@H]1CC[C@@H](c2ccccc2)CC1)c1[nH]c(=O)[nH]c(=O)c1NC1CCCC1 |  |

More lines, now with the values behind:

| SMILES | IC50 (Endothelial lipase [1]) | IC50 (Endothelial lipase [2]) | Papp [3] | remaining at 10 min [4] | Papp [7] | further results |
| --- | --- | --- | --- | --- | --- | --- |
| Nc1c(C(=O)N[C@H]2CC[C@@H](c3ccccc3)CC2)[nH]c(=O)[nH]c1=O | 91 nM |  |  |  |  |  |
| Nc1c(C(=O)N[C@@H]2CCc3cc(OCc4ccccc4)ccc32)[nH]c(=O)[nH]c1=O | 17 nM | 80000 nM | 76.8 ×10⁻⁶ cm/s | 85% |  |  |
| Nc1c(C(=O)N[C@H]2CC[C@@H](c3ccccc3)CC2)n(-c2ccccc2)c(=O)[nH]c1=O | 2350 nM |  |  |  |  |  |
| Nc1c(C(=O)N[C@@H]2CCCc3c(OCc4ccccc4)cccc32)[nH]c(=O)[nH]c1=O | 49 nM | 81000 nM | 71.2 ×10⁻⁶ cm/s | 79% | 96 ×10⁻⁶ cm/s | half-life [5]: 6.7 h; fraction unbound [6]: 0.015; AUC [8]: 79 µM·h; AUC [9]: 140 µM·h; bioavailability [10]: 55%; bioavailability [11]: 55% |
| Nc1c(C(=O)N[C@@H]2CC[C@H](c3ccccc3)C2)[nH]c(=O)[nH]c1=O | 175 nM | 231000 nM |  |  |  |  |
| Nc1c(C(=O)N[C@H]2CC[C@@H](c3ccc(OCc4ccccc4)cc3)CC2)[nH]c(=O)[nH]c1=O | 21 nM | 35000 nM |  | 85% |  |  |
| Nc1c(C(=O)N[C@@H]2CC[C@H](c3ccccc3)c3ccccc32)[nH]c(=O)[nH]c1=O | 50 nM | 76000 nM | 32.2 ×10⁻⁶ cm/s | 92% | 28.9 ×10⁻⁶ cm/s | half-life [5]: 1.4 h; AUC [9]: 11 µM·h |
| CCN1CC(C(=O)NC(C)CCc2ccc(Cl)c(Cl)c2)=C(O)C1=O (stereo not drawn) |  | > 476000 nM | 3.5 ×10⁻⁶ cm/s | 92% | 50.8 ×10⁻⁶ cm/s | fraction unbound [6]: 0.023; AUC [9]: 300 µM·h |
| CC(C)Cn1c(=O)[nH]c(C(=O)N[C@H]2CC[C@@H](c3ccccc3)CC2)c(O)c1=O | 59 nM | 48000 nM |  | 100% |  |  |
